From ChEMBL document CHEMBL4346741, “Synthesis, pharmacological evaluation, and mechanistic study of adefovir mixed phosphonate derivatives bearing cholic acid and l-amino acid moieties for the treatment of HBV” (Bioorg Med Chem, 2019)

Key:
Hepatitis B virus = assay: Antiviral activity against Hepatitis B virus infected in human HepG2.2.15 cells assessed as inhibition of viral DNA synthesis incubated for 2 days followed by replacement of fresh medium containing compound and measured at day 10 by RT-PCR analysis; type: functional, organism-based
HepG2 2.2.15 = assay: Cytotoxicity against human HepG2.2.15 cells assessed as reduction in cell viability incubated for 12 hrs followed by replacement of fresh medium containing compound and measured after 2 days by CCK-8 assay; type: functional
[1] = Selectivity index, ratio of CC50 for cytotoxicity against human HepG2.2.15 cells to EC50 for HBV infected in human HepG2.2.15 cells; type: toxicity, cell-based; conditions: read-out: Ratio CC50/EC50
[2] = substrate: [H][C@@]12C[C@H](O)CC[C@]1(C)[C@@]1([H])CC[C@@]3(C)[C@@]([H])(CC[C@]3([H])[C@H](C)CCC(=O)OCCCOP(=O)(COCCn3cnc4c(N)ncnc43)OCCCOC(=O)[C@@H](C)N)[C@]1([H])[C@@H](O)C2; assay: (§1) Substrate activity at human NTCP expressed in HEK293 cells harboring pEGFP assessed as Km for transporter-mediated drug uptake measured for 30 mins in presence of sodium chloride by UPLC-MS/MS analysis; type: cell-based
[3] = substrate: [H][C@@]12C[C@H](O)CC[C@]1(C)[C@@]1([H])CC[C@@]3(C)[C@@]([H])(CC[C@]3([H])[C@H](C)CCC(=O)OCCCOP(=O)(COCCn3cnc4c(N)ncnc43)OCCCOC(=O)[C@H](N)C(C)C)[C@]1([H])[C@@H](O)C2; assay: as §1; type: cell-based
[4] = substrate: [H][C@@]12C[C@H](O)CC[C@]1(C)[C@@]1([H])CC[C@@]3(C)[C@@]([H])(CC[C@]3([H])[C@H](C)CCC(=O)OCCCOP(=O)(COCCn3cnc4c(N)ncnc43)OCCCOC(=O)[C@H](N)CC(C)C)[C@]1([H])[C@@H](O)C2; assay: as §1; type: cell-based
[5] = substrate: [H][C@@]12C[C@H](O)CC[C@]1(C)[C@@]1([H])CC[C@@]3(C)[C@@]([H])(CC[C@]3([H])[C@H](C)CCC(=O)OCCCOP(=O)(COCCn3cnc4c(N)ncnc43)OCCCOC(=O)[C@H](N)[C@@H](C)CC)[C@]1([H])[C@@H](O)C2; assay: as §1; type: cell-based

Molecule | EC50 (Hepatitis B virus) [µM] | CC50 (HepG2 2.2.15) [µM] | selectivity ratio [1] | other results
CC[C@H](C)[C@@H](N)C(=O)OCCCOP(=O)(COCCn1cnc2c(N)ncnc21)OCCCOC(=O)CC[C@@H](C)[C@H]1CC[C@H]2[C@@H]3CC[C@@H]4C[C@H](O)CC[C@]4(C)[C@H]3C[C@H](O)[C@]12C (some centres undefined) | 44.1 | 1880 | 42.5 | –
CC(C)C[C@H](N)C(=O)SCCCOP(=O)(COCCn1cnc2c(N)ncnc21)OCCCOC(=O)CC[C@@H](C)[C@H]1CC[C@H]2[C@@H]3[C@@H](O)C[C@@H]4C[C@H](O)CC[C@]4(C)[C@H]3CC[C@]12C (some centres undefined) | 14.8 | 2070 | 140 | –
CC(C)[C@H](N)C(=O)SCCCOP(=O)(COCCn1cnc2c(N)ncnc21)OCCCOC(=O)CC[C@@H](C)[C@H]1CC[C@H]2[C@@H]3CC[C@@H]4C[C@H](O)CC[C@]4(C)[C@H]3C[C@H](O)[C@]12C (some centres undefined) | 16.4 | 1020 | 62.5 | –
C[C@H](CCC(=O)OCCCOP(=O)(COCCn1cnc2c(N)ncnc21)OCCCOC(=O)[C@@H](C)N)[C@H]1CC[C@H]2[C@@H]3CC[C@@H]4C[C@H](O)CC[C@]4(C)[C@H]3C[C@H](O)[C@]12C (some centres undefined) | 21.5 | 1050 | 48.8 | –
CC(C)[C@@H](N)C(=O)OCCCOP(=O)(COCCn1cnc2c(N)ncnc21)OCCCOC(=O)CC[C@@H](C)[C@H]1CC[C@H]2[C@@H]3[C@@H](O)C[C@@H]4C[C@H](O)CC[C@]4(C)[C@H]3CC[C@]12C (some centres undefined) | 3.34 | 407 | 122 | –
CC[C@H](C)[C@@H](N)C(=O)OCCCOP(=O)(COCCn1cnc2c(N)ncnc21)OCCCOC(=O)CC[C@@H](C)[C@H]1CC[C@H]2[C@@H]3[C@@H](O)C[C@@H]4C[C@H](O)CC[C@]4(C)[C@H]3CC[C@]12C (some centres undefined) | 0.65 | 378 | 528 | –
CC(C)[C@@H](N)C(=O)OCCCOP(=O)(COCCn1cnc2c(N)ncnc21)OCCCOC(=O)CC[C@@H](C)[C@H]1CC[C@H]2[C@@H]3CC[C@@H]4C[C@H](O)CC[C@]4(C)[C@H]3C[C@H](O)[C@]12C (some centres undefined) | 11.2 | 666 | 59.2 | –
C[C@H](CCC(=O)OCCCOP(=O)(COCCn1cnc2c(N)ncnc21)OCCCSC(=O)[C@@H](N)Cc1ccccc1)[C@H]1CC[C@H]2[C@@H]3CC[C@@H]4C[C@H](O)CC[C@]4(C)[C@H]3C[C@H](O)[C@]12C (some centres undefined) | 18.8 | 789 | 41.9 | –
CC(C)[C@H](N)C(=O)SCCCOP(=O)(COCCn1cnc2c(N)ncnc21)OCCCOC(=O)CC[C@@H](C)[C@H]1CC[C@H]2[C@@H]3[C@@H](O)C[C@@H]4C[C@H](O)CC[C@]4(C)[C@H]3CC[C@]12C (some centres undefined) | 97 | 1840 | 19 | –
C[C@H](CCC(=O)OCCCOP(=O)(COCCn1cnc2c(N)ncnc21)OCCCSC(=O)[C@@H](N)Cc1ccccc1)[C@H]1CC[C@H]2[C@@H]3[C@@H](O)C[C@@H]4C[C@H](O)CC[C@]4(C)[C@H]3CC[C@]12C (some centres undefined) | 29.4 | 3040 | 103 | –
C[C@H](CCC(=O)OCCCOP(=O)(COCCn1cnc2c(N)ncnc21)OCCCOC(=O)[C@@H](C)N)[C@H]1CC[C@H]2[C@@H]3[C@@H](O)C[C@@H]4C[C@H](O)CC[C@]4(C)[C@H]3CC[C@]12C (some centres undefined) | 5.44 | 489 | 90 | –
CC(C)C[C@@H](N)C(=O)OCCCOP(=O)(COCCn1cnc2c(N)ncnc21)OCCCOC(=O)CC[C@@H](C)[C@H]1CC[C@H]2[C@@H]3CC[C@@H]4C[C@H](O)CC[C@]4(C)[C@H]3C[C@H](O)[C@]12C (some centres undefined) | 9.77 | 876 | 89.7 | –
Hepatic sodium/bile acid cotransporter (Homo sapiens) (protein) MEAHNASAPFNFTLPPNFGKRPTDLALSVILVFMLFFIMLSLGCTMEFSKIKAHLWKPKGLAIALVAQYGIMPLTAFVLGKVFRLKNIEALAILVCGCSPGGNLSNVFSLAMKGDMNLSIVMTTCSTFCALGMMPLLLYIYSRGIYDGDLKDKVPYKGIVISLVLVLIPCTIGIVLKSKRPQYMRYVIKGGMIIILLCSVAVTVLSAINVGKSIMFAMTPLLIATSSLMPFIGFLLGYVLSALFCLNGRCRRTVSMETGCQNVQLCSTILNVAFPPEVIGPLFFFPLLYMIFQLGEGLLLIAIFWCYEKFKTPKDKTKMIYTAATTEETIPGALGNGTYKGEDCSPCTA | – | – | – | Km [2]: 48.2 µM; Vmax [2]: 8.28 µmol/min/mg; Km [3]: 113 µM; Vmax [3]: 7.95 µmol/min/mg; Km [4]: 45.5 µM; Vmax [4]: 9.61 µmol/min/mg; Km [5]: 102 µM; Vmax [5]: 6.86 µmol/min/mg
